Data: PubChem BioAssay (NCI)
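Briefly, cells in 96-well plates were exposed to five compound concentrations for 48 h, and endpoints were estimated by linear interpolation. GI50 is the concentration that inhibits growth by half. At the TGI there is no net growth.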

Columns and labels:
Test in all cases: NCI anticancer screen, dose series, 48 h
[1] = tested on: DLD-1 colon
[2] = tested on: DMS 114 small cell lung
[3] = tested on: DMS 273 small cell lung
[4] = tested on: HOP-18 NSCLC
[5] = tested on: KM20L2 colon
[6] = tested on: LXFL 529 NSCLC
[7] = tested on: M19-MEL melanoma
[8] = tested on: SNB-78 CNS

Compound: COc1ccc(C(=O)O/N=C2\CCCC\C2=C/c2ccccc2)cc1
- TGI [1]: > 100 µM
- TGI [2]: > 100 µM
- TGI [3]: > 100 µM
- TGI [4]: > 100 µM
- TGI [5]: > 100 µM
- TGI [6]: > 100 µM
- TGI [7]: > 100 µM
- TGI [8]: > 100 µM

Compound: CC(=O)NNc1nc(C)c(C(/C=C/c2ccc(/C=C/C(=N\NC(=O)c3ccncc3)c3sc(NNC(C)=O)nc3C)cc2)=N/NC(=O)c2ccncc2)s1
- TGI [1]: > 100 µM
- TGI [2]: > 100 µM
- TGI [5]: > 100 µM
- TGI [6]: > 100 µM
- TGI [7]: > 100 µM
- TGI [8]: > 100 µM

Compound: O=C(CC1Sc2ccccc2NC1=O)Nc1cccc(Cl)c1 (stereo not drawn)
- TGI [1]: > 100 µM
- TGI [2]: > 100 µM
- TGI [3]: > 100 µM
- TGI [5]: > 100 µM
- TGI [6]: > 100 µM
- TGI [7]: > 100 µM
- TGI [8]: > 100 µM

Compound: c1ccc([CH2][Sn]([CH2]c2ccccc2)([S]c2cccc3cccnc23)[S]c2cccc3cccnc23)cc1
- GI50 [1]: 0.282 µM
- TGI [1]: 0.886 µM
- GI50 [2]: 0.175 µM
- TGI [2]: 0.378 µM
- GI50 [4]: 0.246 µM
- TGI [4]: 0.84 µM
- GI50 [5]: 0.365 µM
- TGI [5]: 1.14 µM
- GI50 [6]: 0.101 µM
- TGI [6]: 0.244 µM
- GI50 [7]: 0.276 µM
- TGI [7]: 0.739 µM
- GI50 [8]: 0.382 µM
- TGI [8]: 1.5 µM

Compound: COC(=O)C1=Cc2cc3c(cc2[C@H](c2ccc4c(c2)OCO4)C1C(=O)OC)OCO3 (stereo partly drawn)
- TGI [1]: > 100 µM
- TGI [2]: > 100 µM
- TGI [3]: > 100 µM
- TGI [4]: > 100 µM
- TGI [5]: > 100 µM
- TGI [6]: > 100 µM
- TGI [7]: > 100 µM
- TGI [8]: > 100 µM

Compound: Cc1c(C(=O)/C=C/c2ccco2)[n+](=O)c2ccccc2n1[O-]
- TGI [1]: > 100 µM
- TGI [2]: > 100 µM
- TGI [3]: > 100 µM
- TGI [4]: > 100 µM
- TGI [5]: > 100 µM
- TGI [6]: > 100 µM
- TGI [7]: > 100 µM
- TGI [8]: > 100 µM

Compound: COC(=O)C1=C(O)C(O)=C(C(=O)OC)CC1
- TGI [1]: > 100 µM
- TGI [2]: > 100 µM
- TGI [3]: > 100 µM
- TGI [4]: > 100 µM
- TGI [6]: > 100 µM
- TGI [7]: > 100 µM
- TGI [8]: > 100 µM

Compound: CN(C)C1(C#N)CCC2(CC1)OCCO2
- TGI [3]: > 100 µM
- TGI [5]: > 100 µM
- TGI [7]: > 100 µM
- TGI [8]: > 100 µM

Compound: COC(=O)C1=CC(=O)C(C(=O)Nc2ccc(OC)cc2)C(c2ccccc2)O1 (stereo not drawn)
- TGI [1]: > 100 µM
- TGI [2]: > 67.5 µM
- TGI [3]: > 71 µM
- TGI [5]: > 100 µM
- TGI [6]: 62.4 µM
- TGI [8]: > 81.9 µM

Compound: Cc1cc(O)c2c(c1)C[C@@H](O)C1=C2C(=O)c2c(O)ccc(OC3CC(O)C(OC4CC(OC5CCC(OC6CC(O)C(OC7CC(OC8CCC(O)C(C)O8)C(O)C(C)O7)C(C)O6)C(C)O5)C(O)C(C)O4)C(C)O3)c2C1=O (stereo partly drawn)
- TGI [1]: 0.0426 µM
- TGI [2]: 0.0378 µM
- TGI [3]: 0.0684 µM
- TGI [4]: 0.188 µM
- TGI [5]: 0.191 µM
- TGI [6]: 0.0293 µM
- TGI [7]: 0.0197 µM
- TGI [8]: 0.064 µM

Compound: COc1c(O)c2ccccc2c2cc(O)ccc12
- TGI [1]: 25.5 µM
- TGI [2]: 6.03 µM
- TGI [3]: 20.5 µM
- TGI [4]: 3.72 µM
- TGI [5]: 46.6 µM
- TGI [6]: 9.9 µM
- TGI [7]: 3.59 µM
- TGI [8]: 46.6 µM

Compound: CN1CCC(O)C(CNC23CC4CC(CC(C4)C2)C3)C1 (stereo not drawn)
- TGI [1]: > 100 µM
- TGI [2]: > 100 µM
- TGI [3]: > 100 µM
- TGI [5]: > 100 µM
- TGI [6]: > 100 µM
- TGI [7]: > 100 µM
- TGI [8]: > 100 µM

Compound: CCC12C=CCN3CC[C@]4(C(=C(C(=O)OC)[C@@H]1Nc1ncnc5c1ncn5C1OC(COC(C)=O)C(OC(C)=O)C1OC(C)=O)Nc1ccccc14)C32 (stereo partly drawn)
- TGI [1]: 6.22 µM
- TGI [2]: 4.27 µM
- TGI [3]: 7.17 µM
- TGI [4]: 19.5 µM
- TGI [5]: 6.94 µM
- TGI [6]: 5.42 µM
- TGI [7]: 5.93 µM
- TGI [8]: 8.26 µM

Compound: CCS[C@H]1NC(=O)C1[C@H](C)O[Si](C)(C)C(C)(C)C (stereo partly drawn)
- TGI [1]: > 100 µM
- TGI [2]: > 100 µM
- TGI [3]: > 100 µM
- TGI [4]: > 100 µM
- TGI [5]: > 100 µM
- TGI [7]: > 100 µM
- TGI [8]: > 100 µM

Compound: Cc1ccc(S(=O)(=O)NCCCN(CCCNS(=O)(=O)c2ccc(C)cc2)S(=O)(=O)c2ccc(C)cc2)cc1
- TGI [1]: > 100 µM
- TGI [2]: > 100 µM
- TGI [3]: > 100 µM
- TGI [5]: > 100 µM
- TGI [6]: > 100 µM
- TGI [7]: > 100 µM
- TGI [8]: > 100 µM

Compound: CC(C)c1ccc2c(c1)CCC1C(C)(C)[C@@H](O)CC[C@]21C (stereo partly drawn)
- TGI [1]: > 100 µM
- TGI [2]: > 100 µM
- TGI [3]: > 100 µM
- TGI [5]: 44.4 µM
- TGI [6]: > 100 µM
- TGI [7]: 44.2 µM
- TGI [8]: > 100 µM

Compound: CC(C)NC(=O)OCc1nnn2c1C(OC(=O)NC(C)C)CC2 (stereo not drawn)
- TGI [1]: > 100 µM
- TGI [2]: > 100 µM
- TGI [3]: > 100 µM
- TGI [4]: > 100 µM
- TGI [5]: > 100 µM
- TGI [6]: > 100 µM
- TGI [7]: > 100 µM
- TGI [8]: > 100 µM

Compound: CCOC(=O)C(C(=O)c1ccccc1-c1ccccc1C(=O)O)=P(c1ccccc1)(c1ccccc1)c1ccccc1
- TGI [2]: 54.4 µM
- TGI [3]: > 100 µM
- TGI [5]: 59.5 µM
- TGI [6]: > 100 µM
- TGI [7]: 72.8 µM
